Reference: article PMC6941952, “A homogeneous bioluminescent immunoassay to probe cellular signaling pathway regulation” (Communications Biology, 2020)

System: phospho-IκBα (Ser32)
Assay: NanoBiT cell-based immunoassay, phosphorylated IκBα in MCF-7 cells
Set-up: species or system human
Conditions: for Raw data / Subtract reagent background: TNF
Method: Prior to NanoBiT Cell-Based Immunoassay, 50,000 cells were seeded in 160 µl of complete growth media per well of a 96-well plate and incubated overnight. The cells were checked under microscope and it was determined that 50,000 cells per well in 96-well plate is under 90% confluency for all cells tested. If necessary, the cell culture media were replaced with serum-free media after the cells were stably adherent on the plate and incubated overnight. To treat cells with activators or inhibitors, medium was changed to 30 µl of medium containing inhibitors. If activation of a specific pathway is needed, the cells were stimulated with 10 µl of medium containing activators. To lyse the cells, 10 µl of lysis buffer containing 0.1% digitonin diluted in 1X immunoassay buffer with protease and phosphatase inhibitors was added and the plates were mixed vigorously for 20 min. Then, 50 µl of an antibody mix containing two primary antibodies against the target protein and NanoBiT detecting antibodies (0.3 µl each per well), diluted in 1X immunoassay buffer was added to the lysates. The plates were incubated at 23 °C for 90 min, followed by the addition of 25 µl of Nano-Glo® reagent consisting of Nano-Glo® Luciferase Assay Substrate mixed with 1X immunoassay buffer. Luminescence was measured using a plate-reading luminometer.
In all, 50,000 MCF-7 cells were seeded in 160 µl complete growth medium per well of a 96-well plate and incubated overnight. Half of the cells were treated with 50 ng per ml TNFα and half with vehicle. Cells were lysed as described above and a mixture of NanoBiT secondary antibodies with primary antibodies at the matrix concentrations described in Fig. 2a were added. After 90 min incubation, the Nano-Glo® reagent was added to the reactions as described above and luminescence was measured using a plate-reading luminometer.
Single dose or dose response inhibitor treatments were performed prior to activation of the pathways as follows. For IκBα, the cells were treated in 30 µl medium with IKK16 or MG132 for 60 min before the addition of 10 µl of DMEM containing appropriate concentration of TNFα. To measure phosphorylation of AKT or STAT3, the corresponding NanoBiT immunoassays were developed with MCF-7 or A431 cells, respectively, according the same scheme used to develop the IκBα assay using the primary antibodies for AKT and STAT3 described in the reagents section. For the AKT assay, MCF-7 cells were incubated overnight in phenol-red free DMEM medium (Gibco #21063-029) without serum. Treatment with LY294002 was performed in 30 µl medium and cells were incubated for 60 min before the addition of 1 µM Insulin. To measure STAT3 phosphorylation, A431 cells were incubated overnight in DMEM medium without serum. […] After addition of the stimulators, the cells were incubated for additional times as follows. IκBα phosphorylation and degradation analyses required both time courses and single time points as described in figures. […] The NanoBiT immunoassay protocol was followed as described above.
All 96-well assay plates were read using a GloMax® 96 Microplate Luminometer from Promega. The instrument was set to 0.5 s integration time. In order to obtain net change of signal, the reagent background values (signal from the well containing all reagent except primary antibodies) were subtracted from the sample values. To plot and analyze the data, Microsoft Excel and GraphPad Prism® Software were used. IC50 values were determined by using a nonlinear regression fit to a sigmoidal dose response (variable slope).

[1] = plate #1, IkB Ab #1 75 ng/ml, P-IkB Ab #1 150 ng/ml
[2] = plate #1, IkB Ab #1 75 ng/ml, P-IkB Ab #1 300 ng/ml
[3] = plate #1, IkB Ab #1 75 ng/ml, P-IkB Ab #1 600 ng/ml
[4] = plate #1, IkB Ab #1 75 ng/ml, P-IkB Ab #1 1200 ng/ml
[5] = plate #1, IkB Ab #1 150 ng/ml, P-IkB Ab #1 75 ng/ml
[6] = plate #1, IkB Ab #1 150 ng/ml, P-IkB Ab #1 150 ng/ml
[7] = plate #1, IkB Ab #1 150 ng/ml, P-IkB Ab #1 300 ng/ml
[8] = plate #1, IkB Ab #1 150 ng/ml, P-IkB Ab #1 600 ng/ml
[9] = plate #1, IkB Ab #1 150 ng/ml, P-IkB Ab #1 1200 ng/ml
[10] = plate #1, IkB Ab #1 300 ng/ml, P-IkB Ab #1 75 ng/ml
[11] = plate #1, IkB Ab #1 300 ng/ml, P-IkB Ab #1 150 ng/ml
[12] = plate #1, IkB Ab #1 300 ng/ml, P-IkB Ab #1 300 ng/ml
[13] = plate #1, IkB Ab #1 300 ng/ml, P-IkB Ab #1 600 ng/ml
[14] = plate #1, IkB Ab #1 300 ng/ml, P-IkB Ab #1 1200 ng/ml
[15] = plate #1, IkB Ab #1 600 ng/ml, P-IkB Ab #1 75 ng/ml
[16] = plate #1, IkB Ab #1 600 ng/ml, P-IkB Ab #1 150 ng/ml
[17] = plate #1, IkB Ab #1 600 ng/ml, P-IkB Ab #1 300 ng/ml
[18] = plate #1, IkB Ab #1 600 ng/ml, P-IkB Ab #1 600 ng/ml
[19] = plate #1, IkB Ab #1 600 ng/ml, P-IkB Ab #1 1200 ng/ml
[20] = plate #1, IkB Ab #1 1200 ng/ml, P-IkB Ab #1 75 ng/ml
[21] = plate #1, IkB Ab #1 1200 ng/ml, P-IkB Ab #1 150 ng/ml
[22] = plate #1, IkB Ab #1 1200 ng/ml, P-IkB Ab #1 300 ng/ml
[23] = plate #1, IkB Ab #1 1200 ng/ml, P-IkB Ab #1 600 ng/ml
[24] = plate #1, IkB Ab #1 1200 ng/ml, P-IkB Ab #1 1200 ng/ml
[25] = plate #2, IkB Ab #2 75 ng/ml, P-IkB Ab #1 75 ng/ml

Substance: TNFα
- Raw data [1]: 38800
- Subtract reagent background [1]: 19890
- Raw data [2]: 36190
- Subtract reagent background [2]: 17280
- Raw data [3]: 29500
- Subtract reagent background [3]: 10590
- Raw data [4]: 23430
- Subtract reagent background [4]: 4520
- Raw data [5]: 31770
- Subtract reagent background [5]: 12860
- Raw data [6]: 37260
- Subtract reagent background [6]: 18350
- Raw data [7]: 34880
- Subtract reagent background [7]: 15970
- Raw data [8]: 27610
- Subtract reagent background [8]: 8700
- Raw data [9]: 22810
- Subtract reagent background [9]: 3900
- Raw data [10]: 28900
- Subtract reagent background [10]: 9990
- Raw data [11]: 32520
- Subtract reagent background [11]: 13610
- Raw data [12]: 32030
- Subtract reagent background [12]: 13120
- Raw data [13]: 24980
- Subtract reagent background [13]: 6070
- Raw data [14]: 21690
- Subtract reagent background [14]: 2780
- Raw data [15]: 24730
- Subtract reagent background [15]: 5820
- Raw data [16]: 27710
- Subtract reagent background [16]: 8800
- Raw data [17]: 26820
- Subtract reagent background [17]: 7910
- Raw data [18]: 24690
- Subtract reagent background [18]: 5780
- Raw data [19]: 22170
- Subtract reagent background [19]: 3260
- Raw data [20]: 22890
- Subtract reagent background [20]: 3980
- Raw data [21]: 24970
- Subtract reagent background [21]: 6060
- Raw data [22]: 24110
- Subtract reagent background [22]: 5200
- Raw data [23]: 24380
- Subtract reagent background [23]: 5470
- Raw data [24]: 22870
- Subtract reagent background [24]: 3960
- Fold change (TNF-treated /Non-treated) (plate #1, IkB Ab #1 (Mouse) 75 ng/ml, P-IkB Ab #1 (Rabbit) 150 ng/ml): 8.219
- Fold change (TNF-treated /Non-treated) (plate #1, IkB Ab #1 (Mouse) 75 ng/ml, P-IkB Ab #1 (Rabbit) 150 ng/ml, listed as TNF): 8.2
- Fold change (TNF-treated /Non-treated) (plate #1, IkB Ab #1 (Mouse) 75 ng/ml, P-IkB Ab #1 (Rabbit) 300 ng/ml): 4.364
- Fold change (TNF-treated /Non-treated) (plate #1, IkB Ab #1 (Mouse) 75 ng/ml, P-IkB Ab #1 (Rabbit) 300 ng/ml, listed as TNF): 4.4
- Fold change (TNF-treated /Non-treated) (plate #1, IkB Ab #1 (Mouse) 75 ng/ml, P-IkB Ab #1 (Rabbit) 600 ng/ml): 2.688
- Fold change (TNF-treated /Non-treated) (plate #1, IkB Ab #1 (Mouse) 75 ng/ml, P-IkB Ab #1 (Rabbit) 600 ng/ml, listed as TNF): 2.7
- Fold change (TNF-treated /Non-treated) (plate #1, IkB Ab #1 (Mouse) 75 ng/ml, P-IkB Ab #1 (Rabbit) 1200 ng/ml): 1.8374
- Fold change (TNF-treated /Non-treated) (plate #1, IkB Ab #1 (Mouse) 75 ng/ml, P-IkB Ab #1 (Rabbit) 1200 ng/ml, listed as TNF): 1.8
- Fold change (TNF-treated /Non-treated) (plate #1, IkB Ab #1 (Mouse) 150 ng/ml, P-IkB Ab #1 (Rabbit) 150 ng/ml): 9.557
- Fold change (TNF-treated /Non-treated) (plate #1, IkB Ab #1 (Mouse) 150 ng/ml, P-IkB Ab #1 (Rabbit) 150 ng/ml, listed as TNF): 9.6
- Fold change (TNF-treated /Non-treated) (plate #1, IkB Ab #1 (Mouse) 150 ng/ml, P-IkB Ab #1 (Rabbit) 300 ng/ml): 4.656
- Fold change (TNF-treated /Non-treated) (plate #1, IkB Ab #1 (Mouse) 150 ng/ml, P-IkB Ab #1 (Rabbit) 300 ng/ml, listed as TNF): 4.7
- Fold change (TNF-treated /Non-treated) (plate #1, IkB Ab #1 (Mouse) 150 ng/ml, P-IkB Ab #1 (Rabbit) 600 ng/ml): 2.797
- Fold change (TNF-treated /Non-treated) (plate #1, IkB Ab #1 (Mouse) 150 ng/ml, P-IkB Ab #1 (Rabbit) 600 ng/ml, listed as TNF): 2.8
- Fold change (TNF-treated /Non-treated) (plate #1, IkB Ab #1 (Mouse) 150 ng/ml, P-IkB Ab #1 (Rabbit) 1200 ng/ml): 0.8904
- Fold change (TNF-treated /Non-treated) (plate #1, IkB Ab #1 (Mouse) 150 ng/ml, P-IkB Ab #1 (Rabbit) 1200 ng/ml, listed as TNF): 0.9
- Fold change (TNF-treated /Non-treated) (plate #1, IkB Ab #1 (Mouse) 300 ng/ml, P-IkB Ab #1 (Rabbit) 150 ng/ml, listed as TNF): 4.1
- Fold change (TNF-treated /Non-treated) (plate #1, IkB Ab #1 (Mouse) 300 ng/ml, P-IkB Ab #1 (Rabbit) 300 ng/ml, listed as TNF): 3.3
- Fold change (TNF-treated /Non-treated) (plate #1, IkB Ab #1 (Mouse) 300 ng/ml, P-IkB Ab #1 (Rabbit) 600 ng/ml, listed as TNF): 1.6
- Fold change (TNF-treated /Non-treated) (plate #1, IkB Ab #1 (Mouse) 300 ng/ml, P-IkB Ab #1 (Rabbit) 1200 ng/ml, listed as TNF): 1.0
- Fold change (TNF-treated /Non-treated) (plate #1, IkB Ab #1 (Mouse) 600 ng/ml, P-IkB Ab #1 (Rabbit) 75 ng/ml, listed as TNF): 4.9
- Fold change (TNF-treated /Non-treated) (plate #1, IkB Ab #1 (Mouse) 600 ng/ml, P-IkB Ab #1 (Rabbit) 150 ng/ml, listed as TNF): 5.1
- Fold change (TNF-treated /Non-treated) (plate #1, IkB Ab #1 (Mouse) 600 ng/ml, P-IkB Ab #1 (Rabbit) 300 ng/ml, listed as TNF): 3.0
- Fold change (TNF-treated /Non-treated) (plate #1, IkB Ab #1 (Mouse) 600 ng/ml, P-IkB Ab #1 (Rabbit) 600 ng/ml, listed as TNF): 2.3
- Fold change (TNF-treated /Non-treated) (plate #1, IkB Ab #1 (Mouse) 600 ng/ml, P-IkB Ab #1 (Rabbit) 1200 ng/ml, listed as TNF): 1.1
- Fold change (TNF-treated /Non-treated) (plate #1, IkB Ab #1 (Mouse) 1200 ng/ml, P-IkB Ab #1 (Rabbit) 75 ng/ml, listed as TNF): 2.5
- Fold change (TNF-treated /Non-treated) (plate #1, IkB Ab #1 (Mouse) 1200 ng/ml, P-IkB Ab #1 (Rabbit) 150 ng/ml, listed as TNF): 3.0
- Fold change (TNF-treated /Non-treated) (plate #1, IkB Ab #1 (Mouse) 1200 ng/ml, P-IkB Ab #1 (Rabbit) 300 ng/ml, listed as TNF): 1.9
- Fold change (TNF-treated /Non-treated) (plate #1, IkB Ab #1 (Mouse) 1200 ng/ml, P-IkB Ab #1 (Rabbit) 600 ng/ml, listed as TNF): 2.0
- Fold change (TNF-treated /Non-treated) (plate #1, IkB Ab #1 (Mouse) 1200 ng/ml, P-IkB Ab #1 (Rabbit) 1200 ng/ml, listed as TNF): 1.8
- Raw data [25]: 20520
- Subtract reagent background [25]: 2000
- Raw data (plate #2, IkB Ab #2 75 ng/ml, P-IkB Ab #1 150 ng/ml): 20690
